Columns and labels:
Human Axl = molecular target: T1, Human Axl (Homo sapiens, UniProt P30530, Q764R); assay: Human AXL kinase assay (33P-phosphoryl transfer radiometric, KinaseProfiler); settings: biochemical activity; 10 μM ATP
T1 construct: Human Axl (residues H473-A894 with Q764R, 161 nM); purchased Eurofins Pharma Discovery Services UK Limited (KinaseProfiler service)
T1 sequence (P30530 473-894 Q764R): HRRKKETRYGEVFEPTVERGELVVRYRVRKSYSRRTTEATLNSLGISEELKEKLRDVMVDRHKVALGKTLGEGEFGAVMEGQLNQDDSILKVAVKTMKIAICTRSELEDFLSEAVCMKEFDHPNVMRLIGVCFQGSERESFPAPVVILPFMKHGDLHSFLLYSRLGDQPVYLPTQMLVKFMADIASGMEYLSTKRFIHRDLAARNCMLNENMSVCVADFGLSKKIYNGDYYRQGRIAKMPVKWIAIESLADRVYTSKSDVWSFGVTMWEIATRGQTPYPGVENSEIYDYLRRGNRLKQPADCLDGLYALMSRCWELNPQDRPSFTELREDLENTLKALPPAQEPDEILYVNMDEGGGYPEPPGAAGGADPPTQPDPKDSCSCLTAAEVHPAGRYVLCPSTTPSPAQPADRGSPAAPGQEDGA
Protocol: Kinase activity and compound inhibition were investigated using the ^33P-Phosphoryl transfer radiometric kinase assay, performed using the KinaseProfiler™ service of Eurofins Pharma Discovery Services UK Limited. Dose-response experiments were performed using nine compound concentrations in a 96-well microtiter plate. For each assay, all compounds were prepared to a 50× final assay concentration (50 μM) in 100% DMSO, then diluted in a half-log series, with the final top concentration at 1 μM. This working stock of the compound was added to the assay well as the first component in the reaction, followed by the remaining components as detailed in the following assay protocols below. The positive control wells (100% kinase activity) contain all components of the reaction including 2% DMSO (control for solvent effects), except the compound of interest. Blank wells contain all components of the reaction, with the reference inhibitor, staurosporine. This reference compound was used to abolish kinase activity and generated the 0% kinase activity base-line. IC50 values were calculated by nonlinear regression analysis using the sigmoidal dose-response (variable slope) curve fit on XLFit version 5.3 (ID Business Solutions).
Human Axl (residues H473-A894 with Q764R, 161 nM) was incubated with 8 mM MOPS pH 7.0, 0.2 mM EDTA, 250 μM KKSRGDYMTMQIG, 10 mM magnesium acetate, and 10 μM [y-^33P-ATP]. The reaction was initiated by the addition of the Mg/ATP mix. After incubation for 40 minutes at room temperature, the reaction was stopped by the addition of phosphoric acid to a concentration of 0.5%. A reaction aliquot of 10 μL was then spotted onto a P30 filtermat and washed four times for 4 minutes in 0.425% phosphoric acid and once in methanol prior to drying and scintillation counting. Incorporated ^33P was measured using the Wallac Microbeta scintillation counter (Perkin Elmer).

AXL = molecular target: T2, AXL (Homo sapiens, UniProt P30530); assay: AXL autophosphorylation ELISA in A-172 cells; type: cell-based; settings: cellular activity, Gas6-stimulated, phospho-AXL ELISA
T2 construct: endogenous in cells; host or cells: A-172 glioblastoma cells (ATCC #CRL-1620)
T2 sequence (P30530 26-894): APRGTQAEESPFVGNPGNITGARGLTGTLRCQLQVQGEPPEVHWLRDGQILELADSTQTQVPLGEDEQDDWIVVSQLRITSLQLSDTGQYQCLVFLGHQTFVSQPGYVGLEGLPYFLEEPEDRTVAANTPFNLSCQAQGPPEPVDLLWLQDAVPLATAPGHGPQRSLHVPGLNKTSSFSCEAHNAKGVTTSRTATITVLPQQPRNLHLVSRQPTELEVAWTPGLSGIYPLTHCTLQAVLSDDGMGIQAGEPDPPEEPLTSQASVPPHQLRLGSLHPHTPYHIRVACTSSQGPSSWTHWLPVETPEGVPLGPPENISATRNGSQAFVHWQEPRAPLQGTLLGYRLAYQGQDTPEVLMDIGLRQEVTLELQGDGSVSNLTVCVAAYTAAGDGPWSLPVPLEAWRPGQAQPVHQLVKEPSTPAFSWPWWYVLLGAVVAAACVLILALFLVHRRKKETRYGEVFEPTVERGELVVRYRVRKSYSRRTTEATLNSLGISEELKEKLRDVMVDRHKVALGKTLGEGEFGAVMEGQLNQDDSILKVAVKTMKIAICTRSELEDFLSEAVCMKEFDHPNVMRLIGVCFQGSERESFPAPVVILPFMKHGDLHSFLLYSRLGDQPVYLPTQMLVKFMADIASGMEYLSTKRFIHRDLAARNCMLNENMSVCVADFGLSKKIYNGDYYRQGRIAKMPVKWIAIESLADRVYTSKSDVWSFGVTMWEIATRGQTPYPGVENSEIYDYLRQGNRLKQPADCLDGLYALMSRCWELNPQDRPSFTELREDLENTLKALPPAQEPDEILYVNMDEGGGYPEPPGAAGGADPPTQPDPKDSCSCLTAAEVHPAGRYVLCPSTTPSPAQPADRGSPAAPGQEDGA
Protocol: A-172 glioblastoma cells (ATCC #CRL-1620) were seeded at 2.5×10^5 cells/well onto 24-well plates (Greiner #662165), in DMEM (Thermo Fisher #11995-040) containing 10% FBS (Thermo Fisher #26140-079), 1% MEM NEAA (Thermo Fisher #11140-050), 1% GlutaMax (Thermo Fisher #35050-061) and 1% Penicillin Streptomycin (Thermo Fisher #15140-122). A-172 cells were incubated at 37° C., 5% CO2 for 24 h and then starved for 24 h in serum-free medium. Test compounds were serially diluted to produce an 8-point dose curve in fresh serum-free medium to a final concentration of 0.3% DMSO (vehicle) and added to the cells and incubated for 1 h. Cells were then stimulated with 1 μg/mL recombinant human Gas6 (R&D Systems #885-GSB-500) for 15 min, washed with cold PBS and immediately lysed with 150 μL of cold 1× lysis buffer [20 mM Tris, 137 mM sodium chloride, 2 mM EDTA, 10% glycerol, 1% NP-40 alternative, 1 mM activated sodium orthovanadate, 1 mM PefaBloc SC (Sigma-Aldrich #11429868001), protease/phosphatase inhibitor tablet (Thermo Fisher #A32959)]. Lysates were collected and 100 μL/well added into the human phospho-AXL DuoSet IC ELISA (R&D Systems #DYC2228-2). Assay was performed according to manufacturer's instructions and sample phospho-AXL concentrations were extrapolated using human phospho-AXL control (R&D Systems #841645) as a standard. Positive control wells (100% activity) contained Gas6-stimulated, DMSO-treated cell lysates. Negative control wells (0% activity) contained Gas6-stimulated, reference inhibitor-treated cell lysates. IC50 values were calculated by nonlinear regression analysis using a 4-parameter logistic curve fit in ActivityBase XE (IDBS).

Row | SMILES | IC50 (Human Axl) [nM] | IC50 (AXL) [nM]
1 | O=C(Nc1ccc(F)cc1)C1(C(=O)Nc2ccc(Oc3ccnc4cc(C5CCNC5)ccc34)cc2)CC1 (stereo not drawn) [Compound 83, 1-N′-(4-Fluorophenyl)-1-N-[4-(7-pyrrolidin-3-ylquinolin-4-yl)oxyphenyl]cyclopropane-1,1-dicarboxamide] | 10 to 100 | 100 to 300
2 | Cc1cc2c(Oc3cc(Cl)c(NC(=O)C4(C(=O)Nc5ccc(F)cc5)CC4)cc3F)ccnc2cc1-c1cnn(C)c1 [Compound 112, 1-N′-[2-Chloro-5-fluoro-4-[6-methyl-7-(1-methylpyrazol-4-yl)quinolin-4-yl]oxyphenyl]-1-N-(4-fluorophenyl)cyclopropane-1,1-dicarboxamide] | – | 10 to 100
3 | COc1cncc(-c2ccc3c(Oc4ccc(NC(=O)C5(C(=O)Nc6ccc(F)cc6)CC5)cc4)ccnc3c2)c1 [Compound 47, 1-N′-(4-Fluorophenyl)-1-N-[4-[7-(5-methoxypyridin-3-yl)quinolin-4-yl]oxyphenyl]cyclopropane-1,1-dicarboxamide] | – | 10 to 100
4 | O=C(Nc1ccc(F)cc1)C1(C(=O)Nc2ccc(Oc3ccnc4cc(-c5cncs5)ccc34)cc2)CC1 [Compound 116, 1-N′-(4-Fluorophenyl)-1-N-[4-[7-(1,3-thiazol-5-yl)quinolin-4-yl]oxyphenyl]cyclopropane-1,1-dicarboxamide] | – | 10 to 100
5 | O=C(Nc1ccc(F)cc1)C1(C(=O)Nc2ccc(Oc3ccnc4cc(-c5cccnc5)ccc34)c(F)c2)CC1 [Compound 113, 1-N-(4-Fluorophenyl)-1-N′-[3-fluoro-4-(7-pyridin-3-ylquinolin-4-yl)oxyphenyl]cyclopropane-1,1-dicarboxamide] | – | 10 to 100
6 | N#Cc1cncc(-c2ccc3c(Oc4ccc(NC(=O)C5(C(=O)Nc6ccc(F)cc6)CC5)cc4)ccnc3c2)c1 [Compound 40, 1-N-[4-[7-(5-Cyanopyridin-3-yl)quinolin-4-yl]oxyphenyl]-1-N′-(4-fluorophenyl)cyclopropane-1,1-dicarboxamide] | – | 10 to 100
7 | Cc1cc2c(Oc3ccc(NC(=O)C4(C(=O)Nc5ccc(F)cc5)CC4)cc3F)ccnc2cc1-c1ncc[nH]1 [Compound 122, 1-N′-[3-Fluoro-4-[7-(1H-imidazol-2-yl)-6-methylquinolin-4-yl]oxyphenyl]-1-N-(4-fluorophenyl)cyclopropane-1,1-dicarboxamide] | – | 10 to 100
8 | N#Cc1ccc(-c2ccc3c(Oc4ccc(NC(=O)C5(C(=O)Nc6ccc(F)cc6)CC5)cc4)ccnc3c2)cn1 [Compound 42, 1-N-[4-[7-(6-Cyanopyridin-3-yl)quinolin-4-yl]oxyphenyl]-1-N′-(4-fluorophenyl)cyclopropane-1,1-dicarboxamide] | – | 10 to 100
9 | O=C(Nc1ccc(F)cc1)C1(C(=O)Nc2ccc(Oc3ccnc4cc(-c5ccc(F)nc5)ccc34)cc2)CC1 [Compound 41, 1-N′-(4-Fluorophenyl)-1-N-[4-[7-(6-fluoropyridin-3-yl)quinolin-4-yl]oxyphenyl]cyclopropane-1,1-dicarboxamide] | – | 10 to 100
10 | CN1CCN(c2cc(-c3ccc4c(Oc5ccc(NC(=O)C6(C(=O)Nc7ccc(F)cc7)CC6)cc5)ccnc4c3)ccn2)CC1 [Compound 111, 1-N′-(4-Fluorophenyl)-1-N-[4-[7-[2-(4-methylpiperazin-1-yl)pyridin-4-yl]quinolin-4-yl]oxyphenyl]cyclopropane-1,1-dicarboxamide] | – | 10 to 100

Second part, the compound after the results:

Row | IC50 (Human Axl) [nM] | IC50 (AXL) [nM] | SMILES
11 | 10 to 100 | 10 to 100 | Cn1ccc(-c2ccc3c(Oc4ccc(NC(=O)C5(C(=O)Nc6ccc(F)cc6)CC5)cc4)ccnc3c2)n1 [Compound 17, 1-N′-(4-Fluorophenyl)-1-N-[4-[7-(1-methylpyrazol-3-yl)quinolin-4-yl]oxyphenyl]cyclopropane-1,1-dicarboxamide]
12 | 10 to 100 | 10 to 100 | Cn1ccnc1-c1ccc2c(Oc3ccc(NC(=O)C4(C(=O)Nc5ccc(F)cc5)CC4)cc3)ccnc2c1 [Compound 75, 1-N′-(4-Fluorophenyl)-1-N-[4-[7-(1-methylimidazol-2-yl)quinolin-4-yl]oxyphenyl]cyclopropane-1,1-dicarboxamide]
13 | 10 to 100 | 10 to 100 | O=C(Nc1ccc(F)cc1)C1(C(=O)Nc2ccc(Oc3ccnc4cc(-c5cnn(CC(F)(F)F)c5)ccc34)cc2)CC1 [Compound 16, 1-N′-(4-Fluorophenyl)-1-N-[4-[7-[1-(2,2,2-trifluoroethyl)pyrazol-4-yl]quinolin-4-yl]oxyphenyl]cyclopropane-1,1-dicarboxamide]
14 | 10 to 100 | 10 to 100 | CC(C)(C)n1cc(-c2ccc3c(Oc4ccc(NC(=O)C5(C(=O)Nc6ccc(F)cc6)CC5)cc4)ccnc3c2)cn1 [Compound 23, 1-N-[4-[7-(1-tert-Butylpyrazol-4-yl)quinolin-4-yl]oxyphenyl]-1-N′-(4-fluorophenyl)cyclopropane-1,1-dicarboxamide]
15 | – | ≤ 10 | O=C(Nc1ccc(F)cc1)C1(C(=O)Nc2cc(F)c(Oc3ccnc4cc(-c5cccnc5)ccc34)cc2F)CC1 [Compound 115, 1-N′-[2,5-Difluoro-4-(7-pyridin-3-ylquinolin-4-yl)oxyphenyl]-1-N-(4-fluorophenyl)cyclopropane-1,1-dicarboxamide]
16 | – | ≤ 10 | Cc1cc2c(Oc3cc(F)c(NC(=O)C4(C(=O)Nc5ccc(F)cc5)CC4)cc3F)ccnc2cc1-c1ncc[nH]1 [Compound 121, 1-N′-[2,5-Difluoro-4-[7-(1H-imidazol-2-yl)-6-methylquinolin-4-yl]oxyphenyl]-1-N-(4-fluorophenyl)cyclopropane-1,1-dicarboxamide]

— patent US12503438B2, “Compounds for the treatment of kinase-dependent disorders” (Exelixis, Inc., priority 2019, dated 2025)
